Measurements taken from patent publication US8426408B2, “Pyrimidine inhibitors of kinases” (AbbVie Inc., priority 2009, dated 2013).

Assays:
NCI-H1299 cells = experiment: Induction of polyploidy in H1299; type: cell-based, Human; settings: NCI-H1299, 48 hours
Method: To determine the induction of polyploidy in H1299 cells, NCI-H1299 were seeded (4K/well) into 96-well culture plates (tissue culture grade, black, flat-clear bottom) and incubated overnight to produce cell-to-plate adherence. Inhibitors at varying concentrations were added into duplicate wells containing cells and culture media (RPMI 1640, 10% fetal calf serum) and incubated at 37 C for 48 hours. The plates were then washed with PBS and the adherent cells fixed by incubating with 3% formalin for 1 hour. After washing four times with PBS, the cells were then stained with Hoechst and subjected to fluorescent (360 i/460e) microscopic high content analysis to determine the effect of inhibitors on nuclear size. Polyploid cells (≧4N) were defined as those having nuclear area>750μ^2. Potency was expressed as the concentration of inhibitor necessary to induce polyploidy in 15% of cells (EC15) and was calculated from least squares analysis of the log dose-response.

KDR = KDR (Homo sapiens, UniProt P35968); experiment: KDR HTRF in vitro kinase assay; type: biochemical; design: purified enzyme (His6-KDR 789-1354, MW 63 kD); His6 (N); settings: 1 mM ATP; read-out: KDR enzyme inhibition data (Ki)
In short: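 His6-KDR 789-1354 (7 ng/well) with 0.5 μM biotinylated peptide substrate and 1 mM ATP in HEPES pH 7.1, MgCl2/MnCl2, 60 min at room temperature. EDTA-quenched, detected by streptavidin-XL-665 plus Eu-kryptate anti-phosphotyrosine HTRF after 3 h; IC50 from 620/665 nm ratio.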

Aurora A = target: T1, Aurora A (Homo sapiens, UniProt O14965); experiment: Aurora A enzyme inhibition (time-resolved fluorescence, STK substrate-2); type: biochemical; settings: 1 mM ATP
T1 sequence (O14965 1-403): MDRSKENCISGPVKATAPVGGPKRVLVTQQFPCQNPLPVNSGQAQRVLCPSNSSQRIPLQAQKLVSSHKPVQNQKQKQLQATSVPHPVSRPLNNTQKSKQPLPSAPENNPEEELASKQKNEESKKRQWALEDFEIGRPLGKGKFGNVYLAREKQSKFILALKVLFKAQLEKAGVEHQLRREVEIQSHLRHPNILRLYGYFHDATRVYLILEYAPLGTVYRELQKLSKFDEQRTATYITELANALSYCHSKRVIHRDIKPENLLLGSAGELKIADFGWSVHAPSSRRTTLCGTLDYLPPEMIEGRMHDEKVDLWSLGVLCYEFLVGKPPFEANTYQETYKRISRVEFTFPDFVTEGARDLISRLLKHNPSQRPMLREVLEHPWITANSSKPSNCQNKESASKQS
In short: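 Active enzyme incubated 1 h with biotinylated STK substrate-2, 1 mM ATP and inhibitor in Hepes pH 7.4 with MgCl2, orthovanadate and Triton X-100. EDTA stop; phosphopeptide detected by Eu-cryptate anti-phospho-STK/SA-XL665 TR-FRET (665/615 nm ratio); IC50 by exponential fit.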

Aurora B = target: T2, Aurora B (Homo sapiens, UniProt Q96GD4); experiment: Aurora B enzyme inhibition (time-resolved fluorescence, histone H3 peptide); type: biochemical; settings: 1 mM ATP
T2 construct: Active Aurora B enzyme (recombinant residues 1-344)
In short: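 Recombinant Aurora B (residues 1-344) with GST-INCENP phosphorylated biotinylated histone H3 (1-21) peptide at 1 mM ATP in HEPES pH 7.4 with MgCl2, orthovanadate and Triton X-100 for 1 h. After EDTA stop, the phosphopeptide was detected by TR-FRET (Eu-cryptate anti-phospho-H3 / SA-APC, 665/615 nm ratio). IC50 from an exponential fit.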

T2 sequence (Q96GD4 whole entry, the tested form may be a part): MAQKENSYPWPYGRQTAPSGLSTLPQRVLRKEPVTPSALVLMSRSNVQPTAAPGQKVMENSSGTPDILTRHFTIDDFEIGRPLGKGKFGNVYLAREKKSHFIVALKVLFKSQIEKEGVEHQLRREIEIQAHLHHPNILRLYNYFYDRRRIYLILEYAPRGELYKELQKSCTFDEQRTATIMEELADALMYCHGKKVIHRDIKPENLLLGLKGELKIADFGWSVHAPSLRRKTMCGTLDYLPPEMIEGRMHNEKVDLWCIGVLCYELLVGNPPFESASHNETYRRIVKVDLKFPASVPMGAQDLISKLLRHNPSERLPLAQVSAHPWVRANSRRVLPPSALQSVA
T2 sequence (Q9NQS7 826-918 partner limits assumed): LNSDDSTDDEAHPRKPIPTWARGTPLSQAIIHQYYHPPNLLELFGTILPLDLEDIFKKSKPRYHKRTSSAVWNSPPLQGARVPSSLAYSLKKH
Chain of KDR (P35968 789-1354): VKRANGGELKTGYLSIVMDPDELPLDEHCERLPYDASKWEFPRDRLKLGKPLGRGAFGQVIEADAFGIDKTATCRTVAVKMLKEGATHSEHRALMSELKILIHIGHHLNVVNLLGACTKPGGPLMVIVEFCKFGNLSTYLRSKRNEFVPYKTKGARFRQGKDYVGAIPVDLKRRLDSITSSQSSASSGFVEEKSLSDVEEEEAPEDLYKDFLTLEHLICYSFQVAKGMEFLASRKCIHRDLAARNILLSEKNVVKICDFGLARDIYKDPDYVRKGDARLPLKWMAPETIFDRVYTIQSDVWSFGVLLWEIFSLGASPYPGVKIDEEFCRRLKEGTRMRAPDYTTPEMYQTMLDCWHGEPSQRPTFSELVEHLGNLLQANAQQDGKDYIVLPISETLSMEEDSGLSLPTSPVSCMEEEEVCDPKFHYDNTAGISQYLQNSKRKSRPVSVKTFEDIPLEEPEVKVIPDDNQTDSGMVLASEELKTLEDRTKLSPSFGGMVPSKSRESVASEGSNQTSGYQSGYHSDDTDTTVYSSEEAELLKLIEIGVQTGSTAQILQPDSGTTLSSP

Molecule | EC15 (concentration of inhibitor necessary to induce polyploidy in 15% of cells) (NCI-H1299 cells) | Ki (KDR) [nM] | Ki (Aurora A) [nM] | Ki (Aurora B) [nM]
Cn1cc(Nc2ncc(C(F)(F)F)c(N[C@@H]3C[C@H]4CC[C@@H]3C4)n2)cn1.Cn1cc(Nc2ncc(C(F)(F)F)c(N[C@H]3C[C@@H]4CC[C@H]3C4)n2)cn1 (mixture of isomers) [Example 23, N^4-[(1S,2S,4R)-bicyclo[2.2.1]hept-2-yl]-N^2-(1-methyl-1H-pyrazol-4-yl)-5-(trifluoromethyl)pyrimidine-2,4-diamine and N^4-[(1R,2R,4S)-bicyclo[2.2.1]hept-2-yl]-N^2-(1-methyl-1H-pyrazol-4-yl)-5-(trifluoromethyl)pyrimidine-2,4-diamine] | B (“B” represents an EC15 of between 0.1 μM and 1 μM) | 100 to 1000 | 100 to 1000 | < 100
Cn1cc(Nc2ncc(C(F)(F)F)c(N[C@@H]3CCC[C@@H]3C(N)=O)n2)cn1.Cn1cc(Nc2ncc(C(F)(F)F)c(N[C@H]3CCC[C@H]3C(N)=O)n2)cn1 (mixture of isomers) [Example 25, (1S,2R)-2-{[2-[(1-methyl-1H-pyrazol-4-yl)amino]-5-(trifluoromethyl)pyrimidin-4-yl]amino}cyclopentanecarboxamide and (1R,2S)-2-{[2-[(1-methyl-1H-pyrazol-4-yl)amino]-5-(trifluoromethyl)pyrimidin-4-yl]amino}cyclopentanecarboxamide] | A (“A” represents an EC15 of less than 0.1 μM) | 100 to 1000 | 100 to 1000 | < 100
Cn1cc(Nc2ncc(C(F)(F)F)c(N[C@@H]3CC=CC[C@@H]3C(N)=O)n2)cn1.Cn1cc(Nc2ncc(C(F)(F)F)c(N[C@H]3CC=CC[C@H]3C(N)=O)n2)cn1 (mixture of isomers) [Example 26, (1S,6R)-6-{[2-[(1-methyl-1H-pyrazol-4-yl)amino]-5-(trifluoromethyl)pyrimidin-4-yl]amino}cyclohex-3-ene-1-carboxamide and (1R,6S)-6-{[2-[(1-methyl-1H-pyrazol-4-yl)amino]-5-(trifluoromethyl)pyrimidin-4-yl]amino}cyclohex-3-ene-1-carboxamide] | A (“A” represents an EC15 of less than 0.1 μM) | 1000 to 5000 | 1000 to 5000 | < 100
Cn1cc(Nc2ncc(Cl)c(N[C@@H]3[C@H](C(N)=O)[C@@H]4C=C[C@H]3C4)n2)cn1.Cn1cc(Nc2ncc(Cl)c(N[C@H]3[C@@H](C(N)=O)[C@H]4C=C[C@@H]3C4)n2)cn1 (mixture of isomers) [Example 120, (1S,2R,3S,4R)-3-({5-chloro-2-[(1-methyl-1H-pyrazol-4-yl)amino]pyrimidin-4-yl}amino)bicyclo[2.2.1]hept-5-ene-2-carboxamide and (1R,2S,3R,4S)-3-({5-chloro-2-[(1-methyl-1H-pyrazol-4-yl)amino]pyrimidin-4-yl}amino)bicyclo[2.2.1]hept-5-ene-2-carboxamide] | B (“B” represents an EC15 of between 0.1 μM and 1 μM) | < 100 | < 100 | < 100
(1S,2S,3R,4R)-3-({5-fluoro-2-[(1-methyl-1H-pyrazol-4-yl)amino]pyrimidin-4-yl}amino)bicyclo[2.2.1]hept-5-ene-2-carboxamide and (1R,2R,3S,4S)-3-({5-fluoro-2-[(1-methyl-1H-pyrazol-4-yl)amino]pyrimidin-4-yl}amino)bicyclo[2.2.1]hept-5-ene-2-carboxamide [Example 1] | B (“B” represents an EC15 of between 0.1 μM and 1 μM) | 100 to 1000 | < 100 | < 100
